{"source": "patent US10058520B2", "about": "“Compositions and methods for treating alzheimer's disease and dementia” (Department of Veterans Affairs, priority 2007, dated 2018)", "key": {"[1]": {"system": "+356/+755 region of the first intron of the mouse mdm2 gene in LA-N-5 neuroblastoma cells and HCC1806 breast cancer cells", "test": "pGL3MDM2 reporter transfection assay", "assay_type": "cell-based", "details": "LA-N-5 and p53 negative HCC1806 cells; FIG. 8 (treatment with T3)", "text": "In order to evaluate the direct effect of thyroid hormone on mdm2 gene expression, we cloned the +356/+755 region from the first intron of the mouse mdm2 gene into pGL3-Promoter vector (pGL3MDM2) for use in transfection assays. This region contains an element which binds monomers and homodimers of TRα, in addition to heterodimers of TRα and RXRβ."}, "[2]": {"details": "blood, after a single dose; cited from earlier work"}, "[3]": {"system": "APP secretion in SH-SY5Y and LA-N-5 human neuroblastoma cell lines and NHNP neuronal progenitor cells", "test": "APP isoform secretion in human neuroblastoma and neuronal progenitor cells (western blot)", "assay_type": "cell-based", "details": "differentiated (+RA) and undifferentiated (-RA) SH-SY5Y, all tested human cell lines, 24 hours of treatment, FIG. 1"}, "APP gene": {"system": "APP gene", "test": "RT-PCR of APP mRNA in brain of normal mice", "assay_type": "in vivo", "details": "normal mouse brain, day 21; FIG. 2 and 3; APP 751 mRNA for hypothyroid mice", "from_the_text": "On day 21, animals were killed, whole brains were removed and hemisected for protein and RNA analysis, and serum was collected for T4 analysis."}, "human Aβ 1-40 and 1-42 [4]": {"system": "human Aβ 1-40 and 1-42", "test": "ELISA for human Aβ in brain of R1.40 huAPP transgenic mice treated with T4", "assay_type": "in vivo, R1.40 human APP transgenic mice", "text": "In another study, we discovered that thyroid hormone down-regulates Aβ 1-40 and 1-42 in mice transgenic for the human APP gene. […] R1.40 human APP transgenic mice contain the entire human APP gene carried on a yeast artificial chromosome.\nMice used in these studies carried the complete human APP gene (huAPP), including the 5′ upstream promoter region, inserted into a yeast artificial chromosome (YAC) construct and are referred to as huAPP-YAC transgenic mice (R1.40 strain). The huAPP gene in these mice contained the Swedish mutation and is expressed in high pathology brain regions.\nR1.40 mice were implanted with T4 containing slow release pellets for three weeks and ELISA specific for human Aβ was performed utilizing normalized protein from mouse brain cytosols. We observed a 30% decrease in human Aβ 1-42 levels and a 25% decrease in Aβ 1-40 levels in mice treated for three weeks with T4. […] Thus, it has been shown that low level thyroid hormone therapy substantially decreases human Aβ40 and Aβ42 levels in both normal and hypothyroid transgenic mice (n=9 animals per group ±SD)."}, "APP isoforms": {"system": "APP isoforms", "test": "Western blot with anti-APP antibody on hemisected brain extracts", "assay_type": "in vivo, mice", "details": "day 21, FIG. 4", "protocol": "In FIG. 4, Western blots were performed utilizing anti-APP antibody on protein from the hemisected brain extracts."}, "insulin levels": {"system": "insulin levels", "details": "previous studies; concentration dependent relative to the amount of zinc; cited from earlier work"}, "[5]": {"details": "humans and mice; previous studies; cited from earlier work"}, "human Aβ 1-40 and 1-42 [6]": {"system": "human Aβ 1-40 and 1-42", "test": "ELISA for human Aβ in brain of huAPP transgenic mice treated with CHP+Zn", "assay_type": "in vivo, human APP transgenic mice", "details": "1.0 mg/L CHP+10 mg/L Zn, or Zn or CHP alone, n=9, FIG. 14", "text": "According to our studies, CHP in combination with a zinc salt decreases Aβ 1-40 and 1-42 in mice transgenic for human APP. […]\nIn some embodiments, higher doses are effective as well."}, "[7]": {"details": "R1.40 mice, T4 slow release pellets for three weeks, brain cytosols, ELISA"}}}
{"compound": "thyroid hormone", "values": [{"measurement": "reporter expression of pGL3MDM2", "setting": "[1]", "value": "negative regulation"}]}
{"compound": "N[C@@H](Cc1cc(I)c(Oc2ccc(O)c(I)c2)c(I)c1)C(=O)O", "note": "[T3, L-triiodothyronine]", "values": [{"measurement": "half-life", "setting": "[2]", "value": "hours"}, {"measurement": "APP secretion", "setting": "[3]", "value": "negative hormonal regulation of APP secretion in a concentration dependent manner"}]}
{"compound": "CCCc1cc(=O)[nH]c(=S)[nH]1", "note": "[propylthiouracil]", "values": [{"measurement": "APP mRNA levels (RT-PCR) vs control animals", "setting": "APP gene", "value": "increased"}, {"measurement": "brain Aβ levels in hypothyroid animals", "setting": "human Aβ 1-40 and 1-42 [4]; iodine-deficient PTU diet for three weeks, FIG. 6", "value": "increase"}, {"measurement": "expression of APP isoforms (western blot) relative to euthyroid animals", "setting": "APP isoforms", "value": "increased"}]}
{"compound": "O=C1N[C@@H](Cc2cnc[nH]2)C(=O)N2CCC[C@@H]12", "note": "[CHP, cyclo-Hispro]", "values": [{"measurement": "insulin levels", "setting": "insulin levels", "value": "does not decrease"}, {"measurement": "toxicity", "setting": "[5]", "value": "non-toxic"}, {"measurement": "brain levels of soluble and insoluble Aβ40 and Aβ42 vs control", "setting": "human Aβ 1-40 and 1-42 [6]", "value": "no significant changes"}]}
{"compound": "NC(Cc1cc(I)c(Oc2cc(I)c(O)c(I)c2)c(I)c1)C(=O)O", "note": "(stereo not shown) [T4, 3:5,3′:5′ tetra-iodothyronine]", "values": [{"measurement": "half-life", "setting": "[2]", "value": "several days"}, {"measurement": "decrease in Aβ 1-40 levels", "setting": "human Aβ 1-40 and 1-42 [4]; [7]", "value": 25, "unit": "%"}, {"measurement": "decrease in human Aβ 1-42 levels", "setting": "human Aβ 1-40 and 1-42 [4]; [7]", "value": 30, "unit": "%"}]}
{"compound": "[Zn]", "note": "[Zn]", "values": [{"measurement": "brain levels of soluble and insoluble Aβ40 and Aβ42 vs control", "setting": "human Aβ 1-40 and 1-42 [6]", "value": "no significant changes"}]}
